Six compounds from PubChem BioAssay (NCI) can be followed below.

Among the test systems are UACC-257 melanoma; HL-60(TB) leukemia; OVCAR-4 ovarian; EKVX NSCLC; HCT-116 colon; HCT-15 colon; SK-OV-3 ovarian; MDA-MB-231 breast; NCI-H226 lung; LOX IMVI melanoma.
Experiment in all cases: NCI anticancer screen, dose series, 48 h

Each structure is given as a SMILES string.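 Interpolation was linear, between the two tested concentrations surrounding the appropriate level; five concentrations were tested over 48 hours in 96-well plates. At the GI50, growth is halved. TGI: concentration producing complete growth inhibition.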 Where only a bound is given, the exact number is not on record here.

Regarding `COc1cc2c3c(n(CCCO)c(=O)c2cc1OC)-c1cc2c(cc1C3=O)OCO2`, the GI50 in the experiment with UACC-257 melanoma was 64.7 µM; in the experiment on HL-60(TB) leukemia, 2.34 µM; with OVCAR-4 ovarian, more than 87.3 µM; in the experiment on EKVX NSCLC it was 54.7 µM; in the experiment on HCT-116 colon, 2.96 µM; in the experiment on HCT-15 colon, 33.4 µM. Further, the GI50 with SK-OV-3 ovarian is 55.3 µM; in the experiment with MDA-MB-231 breast it was 23.4 µM; in the experiment on NCI-H226 lung, 3.85 µM; with LOX IMVI melanoma, 2.89 µM. Further, the TGI was more than 100 µM with UACC-257 melanoma; 10.4 µM with HL-60(TB) leukemia; more than 100 µM in the experiment with OVCAR-4 ovarian; more than 100 µM in the experiment on EKVX NSCLC; more than 38.6 µM in the experiment with HCT-116 colon; more than 100 µM in the experiment with HCT-15 colon. In addition, the TGI is more than 100 µM in the experiment with SK-OV-3 ovarian, more than 76.6 µM in the experiment on MDA-MB-231 breast, 50.9 µM with NCI-H226 lung and 22.9 µM in the experiment with LOX IMVI melanoma.
On to `CCOC(=O)c1sc2ncn(Cc3cccc(Cl)c3)c(=O)c2c1C`, for which the GI50 is 15.6 µM with UACC-257 melanoma; 18 µM with HL-60(TB) leukemia; 16.2 µM with OVCAR-4 ovarian; 17.3 µM in the experiment on EKVX NSCLC; 12.3 µM in the experiment on HCT-116 colon; 14.1 µM in the experiment on HCT-15 colon. The GI50 in the experiment on SK-OV-3 ovarian was 17.4 µM; in the experiment on MDA-MB-231 breast, 13.6 µM; in the experiment on NCI-H226 lung, 12.9 µM; with LOX IMVI melanoma it was 14.6 µM. In addition, the TGI in the experiment with UACC-257 melanoma came to 29.3 µM; with HL-60(TB) leukemia, 31.9 µM; in the experiment on OVCAR-4 ovarian, 29.7 µM; in the experiment with EKVX NSCLC it was 31 µM; with HCT-116 colon it was 24.8 µM; with HCT-15 colon it was 27 µM. Besides, the TGI in the experiment on SK-OV-3 ovarian stood at 31.2 µM; in the experiment with MDA-MB-231 breast, 26.4 µM; in the experiment on NCI-H226 lung it was 25.8 µM; in the experiment with LOX IMVI melanoma, 27.8 µM.
`COc1ccc(/C=C(\C#N)n2nnc3cc(Cl)ccc32)cc1`: the GI50 in the experiment on UACC-257 melanoma was 2.4 µM; in the experiment with HL-60(TB) leukemia, 0.327 µM; with OVCAR-4 ovarian, 2.51 µM; in the experiment on EKVX NSCLC it was 1.47 µM; in the experiment with HCT-116 colon, 0.412 µM; in the experiment with HCT-15 colon, 0.328 µM. For the same compound, the GI50 in the experiment on SK-OV-3 ovarian was 7.09 µM; with MDA-MB-231 breast, 1.09 µM; in the experiment on NCI-H226 lung it was 1.27 µM; with LOX IMVI melanoma, 0.887 µM. For the same compound, the TGI with UACC-257 melanoma was more than 100 µM; with HL-60(TB) leukemia, more than 100 µM; with OVCAR-4 ovarian it was more than 100 µM; in the experiment with EKVX NSCLC it was more than 78 µM; in the experiment with HCT-116 colon, 26.2 µM; in the experiment with HCT-15 colon, 11.4 µM. Further, the TGI with SK-OV-3 ovarian is more than 82.3 µM; in the experiment on MDA-MB-231 breast, 10.2 µM; in the experiment on NCI-H226 lung, more than 23.3 µM; with LOX IMVI melanoma, 9.4 µM.
Consider `O=C(O)CSCC(=O)c1ccccc1`, for which the TGI with UACC-257 melanoma, in the experiment with HL-60(TB) leukemia, in the experiment with OVCAR-4 ovarian, with EKVX NSCLC, in the experiment on HCT-116 colon and in the experiment with HCT-15 colon was more than 100 µM in each case. Moreover, the TGI in the experiment with SK-OV-3 ovarian, in the experiment with MDA-MB-231 breast, in the experiment on NCI-H226 lung and in the experiment with LOX IMVI melanoma was more than 100 µM in each case.
On to `O=C1NC(=O)C2=C1CCC2O` (stereo not given), for which the TGI with UACC-257 melanoma, with HL-60(TB) leukemia, in the experiment with OVCAR-4 ovarian, with EKVX NSCLC, with HCT-116 colon and in the experiment on HCT-15 colon was more than 100 µM each time. Further, the TGI with SK-OV-3 ovarian, in the experiment on MDA-MB-231 breast, in the experiment with NCI-H226 lung and with LOX IMVI melanoma was more than 100 µM each time.
Regarding `COC(=O)c1ccc(-c2nc3cc(F)c(F)cc3nc2C#N)cc1`, the GI50 in the experiment with UACC-257 melanoma is 10.2 µM; in the experiment on HL-60(TB) leukemia, 3.23 µM; in the experiment with OVCAR-4 ovarian it was 4.71 µM; with EKVX NSCLC, 9.89 µM; in the experiment on HCT-116 colon, 7.84 µM; in the experiment on HCT-15 colon it was 1.59 µM. Also, the GI50 in the experiment on SK-OV-3 ovarian was 9.77 µM; in the experiment on MDA-MB-231 breast it was 1.57 µM; in the experiment with NCI-H226 lung, 9.39 µM; with LOX IMVI melanoma, 0.948 µM. The TGI in the experiment with UACC-257 melanoma is 18.8 µM; in the experiment on HL-60(TB) leukemia it was 9.51 µM; in the experiment on OVCAR-4 ovarian, 32.3 µM; with EKVX NSCLC, 19.5 µM; in the experiment with HCT-116 colon, 14.6 µM; in the experiment on HCT-15 colon, 6.47 µM. Moreover, the TGI in the experiment on SK-OV-3 ovarian was found to be 17.2 µM; in the experiment with MDA-MB-231 breast, 6.87 µM; in the experiment with NCI-H226 lung, 21.4 µM; with LOX IMVI melanoma, 1.79 µM.
